Reference: PMC8468783, “New Flavone C-Glycosides from Scleranthus perennis and Their Anti-Collagenase Activity” (Molecules, 2021)

Legend:
[1] = molecular target: collagenase from Clostridium histolyticum; assay: In vitro collagenase inhibition assay (spectrophotometric, FALGPA substrate); assay type: biochemical; conditions: mean ± SD, triplicate; 0.1 U/mL collagenase, 0.8 mM FALGPA, Tricine buffer pH 7.5, 37 °C, 20 min incubation, absorbance at 335 nm; read-out: Anti-collagenase activity IC50
Method: The previous spectrophotometric procedure was modified and subsequently employed to determine the anti-collagenase activity of the isolated compounds [23]. This assay was performed in 50 mM Tricine buffer (pH = 7.5; 400 mM NaCl, 10 mM CaCl2). The mixed solution included 25 µL of 0.1 U/mL collagenase from Clostridium histolyticum, 25 µL Tricine buffer, and 25 µL of various levels of the sample were incubated at 37 °C for 20 min. After incubation, 75 µL of 0.8 mM FALGPA substrate was present. Then, absorbance was measured at 335 nm wavelength. Negative control was performed using Tricine buffer instead of sample and positive control was conducted with EGCG.
The percentage inhibition for assay was calculated by: Enzyme inhibition activity (%) = [1 − […]] × 100% where C is the negative control and S is the sample.

SMILES	IC50 [1] [µM]	melting point [°C]
COc1cc(-c2cc(=O)c3c(O)cc(O)c(C4OCC(O)C(O)C4OC4OC(CO)C(O)C(O)C4O)c3o2)ccc1OC(C)=O [Compound 3, 5,7-dihydroxy-3′-methoxy-4′-acetoxyflavone-8-C-β-D-xylopyranoside-2′′-O-glucoside]	48.3 ± 1.05	–
COc1ccc(C(C)=O)c(O[C@@H]2O[C@H](CO[C@@H]3OC[C@](O)(CO)[C@H]3O)[C@@H](O)[C@H](O)[C@H]2O)c1 [Compound 5, apiopaenonside]	> 125	–
O=C(O[C@@H]1Cc2c(O)cc(O)cc2O[C@@H]1c1cc(O)c(O)c(O)c1)c1cc(O)c(O)c(O)c1 [EGCG, Epigallocatechin gallate, reference compound]	34.32 ± 0.21	–
COc1ccc(-c2cc(=O)c3c(O)cc(O)c(C4OCC(O)C(O)C4OC4OC(CO)C(O)C(O)C4O)c3o2)cc1O [Compound 2, 5,7,3′-trihydroxy-4′-methoxyflavone-8-C-β-D-xylopyranoside-2′′-O-glucoside]	64.9 ± 1.08	178.5 to 179.2
CC(=O)Oc1ccc(-c2cc(=O)c3c(O)cc(O)c(C4OCC(O)C(O)C4OC4OC(CO)C(O)C(O)C4O)c3o2)cc1O [Compound 1, 5,7,3′-trihydroxy-4′-acetoxyflavone-8-C-β-D-xylopyranoside-2′′-O-glucoside]	70.2 ± 1.37	188.5 to 189
COc1cc(-c2cc(=O)c3c(O)cc(O)c(C4OCC(O)C(O)C4OC4OC(CO)C(OC(C)=O)C(O)C4O)c3o2)ccc1OC(C)=O [Compound 4, 5,7-dihydroxy-3′-methoxy-4′-acetoxyflavone-8-C-β-D-xylopyranoside-2′′-O-(4′′′-acetoxy)-glucoside]	36.1 ± 0.78	164.6 to 166.2
